Measurements from patent publication US12365696B2, “Small-molecule focal adhesion kinase (FAK) inhibitors” (DANA-FARBER CANCER INSTITUTE, INC., priority 2019, dated 2025).
Where “and” joins values, the source holds several entries; their conditions need not be identical. Equal values may be shown once. Read-outs that look alike come from different tables or passages of the source.

Tests used:
CHEK1 = CHEK1 (Homo sapiens (Human), UniProt O14757); test: KINOMEscan; assay type: binding; conditions: CHEK1, 10000 nM; read-out: Percent Control
IKK-beta = IKK-beta (Homo sapiens (Human), UniProt O14920); test: KINOMEscan; assay type: binding; conditions: 10000 nM, read-out: Percent Control
[1] = target: RSK3(Kin.Dom.2-C-terminal) (Homo sapiens (Human), UniProt Q15349); test: KINOMEscan; assay type: binding; conditions: 10000 nM, read-out: Percent Control
CASK = CASK (Homo sapiens (Human), UniProt O14936); test: KINOMEscan; assay type: binding; conditions: 10000 nM, read-out: Percent Control
PRKCD = PRKCD (Homo sapiens (Human), UniProt Q05655); test: KINOMEscan; assay type: binding; conditions: 10000 nM, read-out: Percent Control
[2] = target: RSK3(Kin.Dom.1-N-terminal) (Homo sapiens (Human), UniProt Q15349); test: KINOMEscan; assay type: binding; conditions: 10000 nM, read-out: Percent Control
RIPK5 = RIPK5 (Homo sapiens (Human), UniProt Q6XUX3); test: KINOMEscan; assay type: binding; conditions: RIPK5, 10000 nM; read-out: Percent Control
Sequence of RIPK5 (Q6XUX3 whole entry): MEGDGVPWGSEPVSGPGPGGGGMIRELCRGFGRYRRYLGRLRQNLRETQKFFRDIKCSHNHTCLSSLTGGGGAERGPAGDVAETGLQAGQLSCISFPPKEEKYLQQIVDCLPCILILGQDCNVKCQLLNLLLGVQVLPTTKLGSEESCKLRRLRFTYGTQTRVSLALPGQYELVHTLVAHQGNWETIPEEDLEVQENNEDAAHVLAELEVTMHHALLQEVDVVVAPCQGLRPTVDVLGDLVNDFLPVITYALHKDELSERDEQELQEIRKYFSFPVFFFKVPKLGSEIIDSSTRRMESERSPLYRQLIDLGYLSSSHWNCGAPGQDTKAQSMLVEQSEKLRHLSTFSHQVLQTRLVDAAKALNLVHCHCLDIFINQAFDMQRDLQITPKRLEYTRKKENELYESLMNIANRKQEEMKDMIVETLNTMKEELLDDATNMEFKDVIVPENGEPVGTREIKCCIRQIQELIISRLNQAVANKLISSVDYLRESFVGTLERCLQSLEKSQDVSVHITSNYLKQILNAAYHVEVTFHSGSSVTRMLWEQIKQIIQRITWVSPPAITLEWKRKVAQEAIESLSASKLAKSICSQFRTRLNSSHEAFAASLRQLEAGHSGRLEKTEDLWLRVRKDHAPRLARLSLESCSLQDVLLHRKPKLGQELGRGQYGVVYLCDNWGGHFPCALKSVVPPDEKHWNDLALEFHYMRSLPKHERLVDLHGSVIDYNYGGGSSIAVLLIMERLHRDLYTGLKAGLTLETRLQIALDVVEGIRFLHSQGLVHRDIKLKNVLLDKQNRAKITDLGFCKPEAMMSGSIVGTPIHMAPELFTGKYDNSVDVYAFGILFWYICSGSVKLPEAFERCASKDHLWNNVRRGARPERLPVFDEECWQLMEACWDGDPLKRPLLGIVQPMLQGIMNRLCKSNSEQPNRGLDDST

[3] = target: JAK1(JH1domain-catalytic) (Homo sapiens (Human), UniProt P23458); test: KINOMEscan; assay type: binding; conditions: 10000 nM, read-out: Percent Control
Sequence of JAK1(JH1domain-catalytic) (P23458 875-1153): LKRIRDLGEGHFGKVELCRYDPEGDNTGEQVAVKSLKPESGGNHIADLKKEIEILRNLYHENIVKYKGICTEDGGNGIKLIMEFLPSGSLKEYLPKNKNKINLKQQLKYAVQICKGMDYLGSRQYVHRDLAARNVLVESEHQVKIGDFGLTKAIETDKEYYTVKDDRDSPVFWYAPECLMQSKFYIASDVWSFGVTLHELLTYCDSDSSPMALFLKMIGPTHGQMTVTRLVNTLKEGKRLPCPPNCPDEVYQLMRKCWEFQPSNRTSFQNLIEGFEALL

TAK1 = TAK1 (Homo sapiens (Human), UniProt O43318); test: KINOMEscan; assay type: binding; conditions: TAK1, 10000 nM; read-out: Percent Control
Sequence of TAK1 (O43318 whole entry): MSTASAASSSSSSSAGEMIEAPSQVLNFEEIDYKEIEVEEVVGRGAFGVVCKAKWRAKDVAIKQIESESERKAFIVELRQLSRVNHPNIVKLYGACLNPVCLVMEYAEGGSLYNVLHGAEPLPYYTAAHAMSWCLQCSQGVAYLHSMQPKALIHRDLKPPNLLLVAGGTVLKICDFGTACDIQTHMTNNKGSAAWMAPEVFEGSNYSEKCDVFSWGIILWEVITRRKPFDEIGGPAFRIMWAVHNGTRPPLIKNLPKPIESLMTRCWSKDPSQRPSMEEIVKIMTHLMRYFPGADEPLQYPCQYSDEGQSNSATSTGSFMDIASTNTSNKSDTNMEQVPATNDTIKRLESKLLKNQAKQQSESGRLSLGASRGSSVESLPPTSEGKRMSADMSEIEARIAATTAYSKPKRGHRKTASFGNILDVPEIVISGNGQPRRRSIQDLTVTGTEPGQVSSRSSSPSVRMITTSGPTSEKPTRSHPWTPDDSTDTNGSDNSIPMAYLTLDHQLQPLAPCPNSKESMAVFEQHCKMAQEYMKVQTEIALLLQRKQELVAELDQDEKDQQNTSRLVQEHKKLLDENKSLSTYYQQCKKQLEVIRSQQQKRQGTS

HPK1 = HPK1 (Homo sapiens (Human), UniProt Q92918); test: KINOMEscan; assay type: binding; conditions: HPK1, 10000 nM; read-out: Percent Control
FLT3(D835H) = FLT3(D835H) (Homo sapiens (Human), UniProt P36888, D835H); test: KINOMEscan; assay type: binding; conditions: 10000 nM, read-out: Percent Control
CSNK1E = CSNK1E (Homo sapiens (Human), UniProt P49674); test: KINOMEscan; assay type: binding; conditions: 10000 nM, read-out: Percent Control
DMPK = DMPK (Homo sapiens (Human), UniProt Q09013); test: KINOMEscan; assay type: binding; conditions: 10000 nM, read-out: Percent Control
Sequence of DMPK (Q09013 whole entry): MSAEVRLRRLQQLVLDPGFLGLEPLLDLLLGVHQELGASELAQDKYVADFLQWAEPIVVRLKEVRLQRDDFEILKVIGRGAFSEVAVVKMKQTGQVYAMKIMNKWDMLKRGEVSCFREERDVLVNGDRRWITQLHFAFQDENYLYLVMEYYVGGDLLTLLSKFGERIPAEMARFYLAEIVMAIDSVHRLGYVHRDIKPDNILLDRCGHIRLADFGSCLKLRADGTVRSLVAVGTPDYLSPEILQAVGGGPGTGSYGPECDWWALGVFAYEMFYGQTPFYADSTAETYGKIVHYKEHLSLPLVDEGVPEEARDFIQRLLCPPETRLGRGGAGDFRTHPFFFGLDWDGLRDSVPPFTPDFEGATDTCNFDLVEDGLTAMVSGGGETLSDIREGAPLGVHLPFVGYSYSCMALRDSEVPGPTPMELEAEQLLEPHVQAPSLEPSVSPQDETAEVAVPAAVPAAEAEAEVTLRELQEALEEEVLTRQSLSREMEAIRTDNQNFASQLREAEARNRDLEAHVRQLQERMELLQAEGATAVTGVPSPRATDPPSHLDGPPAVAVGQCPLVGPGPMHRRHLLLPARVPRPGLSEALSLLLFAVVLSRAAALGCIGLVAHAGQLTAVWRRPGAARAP

PTK2 (FAK) = PTK2 (FAK) (Homo sapiens (Human), UniProt Q05397); test: Z′-LYTE kinase assay (SelectScreen Biochemical Kinase Profiling), enzymatic IC50
Sequence of PTK2 (FAK) (Q05397 whole entry): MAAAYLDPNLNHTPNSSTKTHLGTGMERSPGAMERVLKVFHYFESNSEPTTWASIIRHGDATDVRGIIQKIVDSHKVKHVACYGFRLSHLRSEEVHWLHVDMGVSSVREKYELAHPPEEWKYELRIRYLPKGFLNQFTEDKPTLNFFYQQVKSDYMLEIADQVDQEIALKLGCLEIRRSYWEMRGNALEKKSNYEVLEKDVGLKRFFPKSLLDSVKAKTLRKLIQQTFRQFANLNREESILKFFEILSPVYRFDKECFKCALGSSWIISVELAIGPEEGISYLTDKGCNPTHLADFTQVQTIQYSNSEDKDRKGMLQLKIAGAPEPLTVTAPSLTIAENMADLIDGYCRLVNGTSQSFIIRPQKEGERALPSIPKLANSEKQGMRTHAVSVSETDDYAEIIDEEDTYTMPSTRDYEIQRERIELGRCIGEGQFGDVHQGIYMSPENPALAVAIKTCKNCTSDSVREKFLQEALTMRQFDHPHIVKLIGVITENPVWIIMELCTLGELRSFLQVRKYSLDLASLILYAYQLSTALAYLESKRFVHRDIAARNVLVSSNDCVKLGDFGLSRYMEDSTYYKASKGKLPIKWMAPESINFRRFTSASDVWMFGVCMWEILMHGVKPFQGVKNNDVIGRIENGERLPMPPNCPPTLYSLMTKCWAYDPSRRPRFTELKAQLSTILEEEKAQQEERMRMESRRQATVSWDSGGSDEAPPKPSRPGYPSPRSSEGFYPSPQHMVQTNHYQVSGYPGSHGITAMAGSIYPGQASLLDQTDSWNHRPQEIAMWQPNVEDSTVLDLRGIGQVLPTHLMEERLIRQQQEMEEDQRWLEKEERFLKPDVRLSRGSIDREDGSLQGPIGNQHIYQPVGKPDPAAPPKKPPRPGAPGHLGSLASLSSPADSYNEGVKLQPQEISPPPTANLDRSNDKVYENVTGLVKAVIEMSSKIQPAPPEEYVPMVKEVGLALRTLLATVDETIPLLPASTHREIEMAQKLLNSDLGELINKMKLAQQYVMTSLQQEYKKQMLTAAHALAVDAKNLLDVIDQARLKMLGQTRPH

FRK = FRK (Homo sapiens (Human), UniProt P42685); test: KINOMEscan; assay type: binding; conditions: 10000 nM, read-out: Percent Control
FGFR2 = FGFR2 (Homo sapiens (Human), UniProt P21802); test: KINOMEscan; assay type: binding; conditions: FGFR2, 10000 nM; read-out: Percent Control
CAMK2D = CAMK2D (Homo sapiens (Human), UniProt Q13557); test: KINOMEscan; assay type: binding; conditions: 10000 nM, read-out: Percent Control
MAP4K4 = MAP4K4 (Homo sapiens (Human), UniProt O95819); test: KINOMEscan; assay type: binding; conditions: MAP4K4, 10000 nM; read-out: Percent Control
PRKG1 = PRKG1 (Homo sapiens (Human), UniProt Q13976); test: KINOMEscan; assay type: binding; conditions: PRKG1, 10000 nM; read-out: Percent Control
Sequence of PRKG1 (Q13976 whole entry): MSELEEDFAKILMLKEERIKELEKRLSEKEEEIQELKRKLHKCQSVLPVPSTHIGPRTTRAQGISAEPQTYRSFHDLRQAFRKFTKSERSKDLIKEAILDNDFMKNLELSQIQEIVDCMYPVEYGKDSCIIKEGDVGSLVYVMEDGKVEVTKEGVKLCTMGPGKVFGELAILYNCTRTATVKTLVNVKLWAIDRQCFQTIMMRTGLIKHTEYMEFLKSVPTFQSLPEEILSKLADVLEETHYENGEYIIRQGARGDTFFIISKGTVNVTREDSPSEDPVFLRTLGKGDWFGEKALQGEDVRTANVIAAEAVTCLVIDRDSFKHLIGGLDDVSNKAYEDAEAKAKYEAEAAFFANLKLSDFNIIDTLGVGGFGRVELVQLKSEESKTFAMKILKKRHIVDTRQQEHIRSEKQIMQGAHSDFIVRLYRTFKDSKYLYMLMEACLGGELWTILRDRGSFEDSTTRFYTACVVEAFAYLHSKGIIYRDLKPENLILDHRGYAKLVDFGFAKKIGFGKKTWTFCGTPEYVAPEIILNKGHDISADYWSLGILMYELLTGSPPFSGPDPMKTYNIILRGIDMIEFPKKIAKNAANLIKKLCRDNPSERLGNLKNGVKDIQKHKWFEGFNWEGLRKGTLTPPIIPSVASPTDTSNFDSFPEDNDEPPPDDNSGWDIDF

KIT-autoinhibited = KIT-autoinhibited (Homo sapiens (Human), UniProt P10721); test: KINOMEscan; assay type: binding; conditions: 10000 nM, read-out: Percent Control
Sequence of KIT-autoinhibited (P10721 544-976): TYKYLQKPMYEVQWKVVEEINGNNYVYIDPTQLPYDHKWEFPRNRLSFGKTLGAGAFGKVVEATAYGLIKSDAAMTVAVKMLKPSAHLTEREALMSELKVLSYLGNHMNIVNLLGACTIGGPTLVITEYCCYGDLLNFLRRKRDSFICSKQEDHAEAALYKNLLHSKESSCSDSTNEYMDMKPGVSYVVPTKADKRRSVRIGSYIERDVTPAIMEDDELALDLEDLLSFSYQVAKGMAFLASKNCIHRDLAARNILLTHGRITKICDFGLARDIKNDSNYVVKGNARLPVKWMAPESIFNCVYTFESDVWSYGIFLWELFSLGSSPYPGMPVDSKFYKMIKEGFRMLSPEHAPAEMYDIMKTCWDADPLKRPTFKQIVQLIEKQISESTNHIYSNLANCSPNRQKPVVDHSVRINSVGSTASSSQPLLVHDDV

PHKG2 = PHKG2 (Homo sapiens (Human), UniProt P15735); test: KINOMEscan; assay type: binding; conditions: PHKG2, 10000 nM; read-out: Percent Control
CDC2L2 = CDC2L2 (Homo sapiens (Human), UniProt Q9UQ88); test: KINOMEscan; assay type: binding; conditions: CDC2L2, 10000 nM; read-out: Percent Control
EPHB2 = EPHB2 (Homo sapiens (Human), UniProt P29323); test: KINOMEscan; assay type: binding; conditions: EPHB2, 10000 nM; read-out: Percent Control
EGFR(L747-T751del, Sins) = EGFR(L747-T751del, Sins) (Homo sapiens (Human), UniProt P00533, DEL747-751/INS746S); test: KINOMEscan; assay type: binding; conditions: 10000 nM, read-out: Percent Control
GRK1 = GRK1 (Homo sapiens (Human), UniProt Q15835); test: KINOMEscan; assay type: binding; conditions: GRK1, 10000 nM; read-out: Percent Control
CSNK1A1L = CSNK1A1L (Homo sapiens (Human), UniProt Q8N752); test: KINOMEscan; assay type: binding; conditions: 10000 nM, read-out: Percent Control
Sequence of CSNK1A1L (Q8N752 whole entry): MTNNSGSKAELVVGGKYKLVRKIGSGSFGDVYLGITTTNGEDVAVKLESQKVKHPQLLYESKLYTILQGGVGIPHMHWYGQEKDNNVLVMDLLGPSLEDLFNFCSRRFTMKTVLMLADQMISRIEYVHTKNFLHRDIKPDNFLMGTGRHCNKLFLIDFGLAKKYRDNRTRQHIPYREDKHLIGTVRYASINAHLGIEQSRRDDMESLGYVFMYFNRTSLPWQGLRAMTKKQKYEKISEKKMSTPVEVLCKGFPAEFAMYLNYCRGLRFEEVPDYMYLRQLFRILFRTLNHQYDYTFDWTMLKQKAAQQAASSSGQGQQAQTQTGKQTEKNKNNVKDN

[4] = enzymatic, Z′-LYTE, read-out: FAK IC50

| Structure (SMILES) | remaining binding at 10 µM (CHEK1) | remaining binding at 10 µM (IKK-beta) | remaining binding at 10 µM [1] | remaining binding at 10 µM (CASK) | remaining binding at 10 µM (PRKCD) | remaining binding at 10 µM [2] | remaining binding at 10 µM (RIPK5) | remaining binding at 10 µM [3] | remaining binding at 10 µM (TAK1) | remaining binding at 10 µM (HPK1) | remaining binding at 10 µM (FLT3(D835H)) | remaining binding at 10 µM (CSNK1E) | remaining binding at 10 µM (DMPK) | IC50 (PTK2 (FAK); [4]) | remaining binding at 10 µM (FRK) | remaining binding at 10 µM (FGFR2) | remaining binding at 10 µM (CAMK2D) | remaining binding at 10 µM (MAP4K4) | remaining binding at 10 µM (PRKG1) | remaining binding at 10 µM (KIT-autoinhibited) | other results |
| --- | --- | --- | --- | --- | --- | --- | --- | --- | --- | --- | --- | --- | --- | --- | --- | --- | --- | --- | --- | --- | --- |
| COc1cc(N2CCC(N3CCN(C)CC3)CC2)ccc1Nc1ncc2c(n1)N(C)c1sc(C)nc1C(=O)N2 [Compound 3, 6-((2-methoxy-4-(4-(4-methylpiperazin-1-yl)piperidin-1-yl)phenyl)amino)-2,4-dimethyl-4,9-dihydro-10H-pyrimido[5,4-b]thiazolo[5,4-e][1,4]diazepin-10-one] | 79% | 100% | 84% | 83% | 86% | 83% | 100% | 85% | 95% | 68% | 67% | 82% | 99% | 62 nM and 62.2 nM | 37% | 80% | 82% | 79% | 93% | 100% | remaining binding at 10 µM (PHKG2): 69%; remaining binding at 10 µM (CDC2L2): 87%; remaining binding at 10 µM (EPHB2): 53%; remaining binding at 10 µM (EGFR(L747-T751del, Sins)): 52%; remaining binding at 10 µM (GRK1): 86%; remaining binding at 10 µM (CSNK1A1L): 78% |
| COc1cc(N2CCC(N3CCN(C)CC3)CC2)ccc1Nc1ncc2c(n1)N(C)c1sc(C)nc1C(=O)N2C [Compound 5, 6-((2-methoxy-4-(4-(4-methylpiperazin-1-yl)piperidin-1-yl)phenyl)amino)-2,4,9-trimethyl-4,9-dihydro-10H-pyrimido[5,4-b]thiazolo[5,4-e][1,4]diazepin-10-one] | 59% | 96% | 31% | 100% | 94% | 100% | 60% | 100% | 100% | 100% | 100% | 100% | 100% | 18.3 nM | 99% | 100% | 92% | 100% | 100% | 100% | IC50 (PTK2 (FAK); FAK, Invitrogen, read-out: Biochemical IC50): 20.2 ± 1.9 nM; remaining binding at 10 µM (PHKG2): 38%; remaining binding at 10 µM (CDC2L2): 95%; remaining binding at 10 µM (EPHB2): 99%; remaining binding at 10 µM (EGFR(L747-T751del, Sins)): 100%; remaining binding at 10 µM (GRK1): 81%; remaining binding at 10 µM (CSNK1A1L): 100% |
